Data from paper PMC6016998 (2018).

Test system: ochratoxin A aptamer, 0 complementary bp (no tail) (DNA, aptamer) GATCGGGTGTGGGTGGCGTAAAGGGAGCATCGGACA
Assay: electrochemical aptamer-based sensor, square wave voltammetry (KDM)
Conditions: 1X PBS pH 7.4, room temperature

Q: With `CCCC[C@@H](C)[C@@H](OC(=O)C[C@@H](CC(=O)O)C(=O)O)[C@H](C[C@@H](C)C[C@H](O)CCCC[C@@H](O)C[C@H](O)[C@H](C)N)OC(=O)C[C@@H](CC(=O)O)C(=O)O` as the molecule, how does the binding (tested at 10 µM only, no KDM signal) read?
A: no

Q: For `C[C@@H]1Cc2c(Cl)cc(C(=O)N[C@@H](Cc3ccccc3)C(=O)O)c(O)c2C(=O)O1`, which KD (1X PBS (Na+, K+; concentrations not given), undiluted iced coffee rows (ions not given), flowing, KDM of 240 Hz and 20 Hz) is on record?
A: 6.5 ± 0.6 µM
